According to paper PMC5218480 (PLoS ONE, 2017):

System: MV-4-11 cells
Assay: Gene expression microarray analysis (Affymetrix PrimeView) and GSEA
Assay type: cell-based, human
Parameters: RFU PODN (11730768_x_at) / Fold change /veh PODN (11730768_x_at) / RFU LINC00158 (11744669_a_at) / Fold change /veh LINC00158 (11744669_a_at) / RFU DUSP10 (11751237_a_at) / Fold change /veh DUSP10 (11751237_a_at) / RFU ID3 (11757404_x_at) / Fold change /veh ID3 (11757404_x_at) / RFU PLEKHG5 (11737974_s_at) / Fold change /veh PLEKHG5 (11737974_s_at) / RFU LRRC4B (11730491_at) / Fold change /veh LRRC4B (11730491_at) / RFU GIMAP4 (11747438_a_at) / Fold change /veh GIMAP4 (11747438_a_at) / RFU KRT8 (11758183_x_at) / Fold change /veh KRT8 (11758183_x_at) / RFU CNN1 (11734310_a_at) / Fold change /veh CNN1 (11734310_a_at) / RFU VPS37D (11726825_at) / Fold change /veh VPS37D (11726825_at) / RFU C10orf10 (11716522_x_at) / Fold change /veh C10orf10 (11716522_x_at) / RFU KIR2DL2 /// KIR2DL4 /// KIR2DL5A /// KIR2DL5B /// KIR2DS1 /// KIR2DS2 /// KIR2DS3 /// KIR2DS4 /// KIR3DL3 /// KIR3DL3 /// KIR3DS1 (11738374_at) / Fold change /veh KIR2DL2 /// KIR2DL4 /// KIR2DL5A /// KIR2DL5B /// KIR2DS1 /// KIR2DS2 /// KIR2DS3 /// KIR2DS4 /// KIR3DL3 /// KIR3DL3 /// KIR3DS1 (11738374_at) / RFU C1QL1 (11718748_at) / Fold change /veh C1QL1 (11718748_at) / RFU TMPRSS4 (11747572_a_at) / Fold change /veh TMPRSS4 (11747572_a_at) / RFU HAMP (11756126_x_at) / Fold change /veh HAMP (11756126_x_at) / RFU RNFT2 (11725882_a_at) / Fold change /veh RNFT2 (11725882_a_at) / RFU NR4A2 (11747474_a_at) / Fold change /veh NR4A2 (11747474_a_at) / RFU ABCC12 (11746883_a_at) / Fold change /veh ABCC12 (11746883_a_at) / RFU TMEM136 (11760407_x_at) / Fold change /veh TMEM136 (11760407_x_at) / RFU CLDN22 /// WWC2 (11732394_at) / Fold change /veh CLDN22 /// WWC2 (11732394_at) / RFU HLA-DPB1 (11760878_x_at) / Fold change /veh HLA-DPB1 (11760878_x_at) / RFU SPINT1 (11716480_a_at) / Fold change /veh SPINT1 (11716480_a_at) / RFU GAP43 (11754022_s_at) / Fold change /veh GAP43 (11754022_s_at) / RFU A4GNT (11735810_at) / Fold change /veh A4GNT (11735810_at) / RFU PRB3 (11715151_x_at) / Fold change /veh PRB3 (11715151_x_at) / RFU TUBB4B (11761932_at) / Fold change /veh TUBB4B (11761932_at) / RFU CAPN14 (11732068_a_at) / Fold change /veh CAPN14 (11732068_a_at) / RFU TMCC2 (11721928_a_at) / Fold change /veh TMCC2 (11721928_a_at) / RFU IRGQ (11745062_a_at) / Fold change /veh IRGQ (11745062_a_at) / RFU FAM174B (11720279_a_at) / Fold change /veh FAM174B (11720279_a_at) / RFU TMPRSS4 (11748680_a_at) / Fold change /veh TMPRSS4 (11748680_a_at) / RFU FAM212B (11763350_a_at) / Fold change /veh FAM212B (11763350_a_at) / RFU PLEKHG5 (11743358_a_at) / Fold change /veh PLEKHG5 (11743358_a_at) / RFU ZSCAN30 (11745921_a_at) / Fold change /veh ZSCAN30 (11745921_a_at) / RFU CMKLR1 (11741424_a_at) / Fold change /veh CMKLR1 (11741424_a_at) / RFU LOC101060620 /// MAPK8IP1 (11723275_at) / Fold change /veh LOC101060620 /// MAPK8IP1 (11723275_at) / RFU SPTSSB (11747773_x_at) / Fold change /veh SPTSSB (11747773_x_at) / RFU PRSS12 (11739890_at) / Fold change /veh PRSS12 (11739890_at) / RFU BIN1 (11741810_x_at) / Fold change /veh BIN1 (11741810_x_at) / RFU WNT11 (11732464_a_at) / Fold change /veh WNT11 (11732464_a_at) / RFU C10orf10 (11716521_a_at) / Fold change /veh C10orf10 (11716521_a_at) / RFU C5orf56 (11738089_at) / Fold change /veh C5orf56 (11738089_at) / RFU CYB561 (11721691_x_at) / Fold change /veh CYB561 (11721691_x_at) / RFU ANKRD19P (11752326_a_at) / Fold change /veh ANKRD19P (11752326_a_at) / RFU OR2T12 /// OR2T33 /// OR2T8 (11738714_s_at) / Fold change /veh OR2T12 /// OR2T33 /// OR2T8 (11738714_s_at) / RFU VCAN (11748164_a_at) / Fold change /veh VCAN (11748164_a_at) / RFU JSRP1 (11732532_at) / Fold change /veh JSRP1 (11732532_at) / RFU KRTAP10-11 (11738290_x_at) / Fold change /veh KRTAP10-11 (11738290_x_at) / RFU MYO3A (11730013_a_at) / Fold change /veh MYO3A (11730013_a_at) / RFU EBF3 (11725865_a_at) / Fold change /veh EBF3 (11725865_a_at) / RFU CAMK2N1 (11719241_x_at) / Fold change /veh CAMK2N1 (11719241_x_at) / RFU C5orf56 (11738088_a_at) / Fold change /veh C5orf56 (11738088_a_at) / RFU OLFML3 (11715873_a_at) / Fold change /veh OLFML3 (11715873_a_at) / RFU LOC100653217 /// NTM (11731650_a_at) / Fold change /veh LOC100653217 /// NTM (11731650_a_at) / RFU MAPK11 (11762145_a_at) / Fold change /veh MAPK11 (11762145_a_at) / RFU FIZ1 (11724087_x_at) / Fold change /veh FIZ1 (11724087_x_at) / RFU OASL (11726364_x_at) / Fold change /veh OASL (11726364_x_at) / RFU SOX15 (11748057_x_at) / Fold change /veh SOX15 (11748057_x_at) / RFU CD79A (11719716_a_at) / Fold change /veh CD79A (11719716_a_at) / RFU HIST1H1D (11736915_at) / Fold change /veh HIST1H1D (11736915_at) / RFU CASKIN2 (11723855_a_at) / Fold change /veh CASKIN2 (11723855_a_at) / RFU LOC730098 (11760151_x_at) / Fold change /veh LOC730098 (11760151_x_at) / RFU OR4N2 (11742367_at) / Fold change /veh OR4N2 (11742367_at) / RFU PRRT2 (11749266_a_at) / Fold change /veh PRRT2 (11749266_a_at) / RFU SNX32 (11753110_a_at) / Fold change /veh SNX32 (11753110_a_at) / RFU CDHR5 (11726645_a_at) / Fold change /veh CDHR5 (11726645_a_at) / RFU RCAN1 (11760418_a_at) / Fold change /veh RCAN1 (11760418_a_at) / RFU FAM167A (11723789_a_at) / Fold change /veh FAM167A (11723789_a_at) / RFU FAM26E (11764081_at) / Fold change /veh FAM26E (11764081_at) / RFU ISYNA1 (11749810_s_at) / Fold change /veh ISYNA1 (11749810_s_at) / RFU ACY1 (11761880_at) / Fold change /veh ACY1 (11761880_at) / RFU 11764098_at / Fold change /veh 11764098_at / RFU SAMD14 (11745864_x_at) / Fold change /veh SAMD14 (11745864_x_at) / RFU NPB (11741838_a_at) / Fold change /veh NPB (11741838_a_at) / RFU TMPRSS6 (11731388_a_at) / Fold change /veh TMPRSS6 (11731388_a_at) / RFU KRTAP10-2 (11738614_at) / Fold change /veh KRTAP10-2 (11738614_at) / RFU ARHGAP8 /// PRR5-ARHGAP8 (11727945_x_at) / Fold change /veh ARHGAP8 /// PRR5-ARHGAP8 (11727945_x_at) / RFU KRTAP5-7 /// NADSYN1 (11734609_at) / Fold change /veh KRTAP5-7 /// NADSYN1 (11734609_at) / RFU RASL12 (11751679_a_at) / Fold change /veh RASL12 (11751679_a_at) / RFU CDKN2B (11736163_a_at) / Fold change /veh CDKN2B (11736163_a_at) / RFU PRF1 (11729649_at) / Fold change /veh PRF1 (11729649_at) / RFU, ZNF638 /// ZNF638-IT1 / Fold change vs veh, ZNF638 /// ZNF638-IT1 / RFU, PANK3 / Fold change vs veh, PANK3 / RFU, SH3YL1 / Fold change vs veh, SH3YL1 / RFU, ZEB2 / Fold change vs veh, ZEB2 / RFU, NRIP1 / Fold change vs veh, NRIP1 / RFU, PTTG1IP / Fold change vs veh, PTTG1IP / RFU, CAPN2 / Fold change vs veh, CAPN2 / RFU, MED14 / Fold change vs veh, MED14 / RFU, SNORA58 / Fold change vs veh, SNORA58 / RFU, C1orf63 / Fold change vs veh, C1orf63 / RFU, LRRFIP1 / Fold change vs veh, LRRFIP1 / RFU, NDUFAF7 / Fold change vs veh, NDUFAF7 / RFU, SLC12A2 / Fold change vs veh, SLC12A2 / RFU, IBTK / Fold change vs veh, IBTK / RFU, ESF1 / Fold change vs veh, ESF1 / Fold change vs veh, TMEM50B / RFU, TAOK1 / Fold change vs veh, TAOK1 / RFU, ACBD3 / Fold change vs veh, ACBD3 / RFU, TMA16 / Fold change vs veh, TMA16 / RFU, RWDD3 / Fold change vs veh, RWDD3 / RFU, BCAT1 / Fold change vs veh, BCAT1 / RFU, EDEM3 / Fold change vs veh, EDEM3 / RFU, TMEM33 / Fold change vs veh, TMEM33 / RFU, WDR75 / Fold change vs veh, WDR75 / RFU, AHCTF1 / Fold change vs veh, AHCTF1 / RFU, TFRC / Fold change vs veh, TFRC / RFU, ZDHHC17 / Fold change vs veh, ZDHHC17 / RFU, NOM1 / Fold change vs veh, NOM1 / RFU, ARL8B / Fold change vs veh, ARL8B / RFU, ZBTB11 / Fold change vs veh, ZBTB11 / RFU, TAMM41 / Fold change vs veh, TAMM41 / RFU, KIAA1704 /// LOC100996395 / Fold change vs veh, KIAA1704 /// LOC100996395 / RFU, ING1 / Fold change vs veh, ING1 / RFU, TRMT61B / Fold change vs veh, TRMT61B / RFU, FUBP3 / Fold change vs veh, FUBP3 / RFU, TP53 / Fold change vs veh, TP53 / RFU, TNKS2 / Fold change vs veh, TNKS2 / RFU, ZFP14 / Fold change vs veh, ZFP14 / RFU, ACTR2 / Fold change vs veh, ACTR2 / RFU, PPP3R1 / Fold change vs veh, PPP3R1 / RFU, PIK3R1 / Fold change vs veh, PIK3R1 / RFU, HNRNPA1 / Fold change vs veh, HNRNPA1 / RFU, RNF170 / Fold change vs veh, RNF170 / RFU, ZNF28 / Fold change vs veh, ZNF28 / RFU, RNGTT / Fold change vs veh, RNGTT / RFU, OGT / Fold change vs veh, OGT / RFU, BRD1 / Fold change vs veh, BRD1 / RFU, MARS / Fold change vs veh, MARS / RFU, ZNF655 / Fold change vs veh, ZNF655 / RFU, FAHD1 / Fold change vs veh, FAHD1 / RFU, BDP1 / Fold change vs veh, BDP1 / RFU, LRRCC1 / Fold change vs veh, LRRCC1 / RFU, ARID1A / Fold change vs veh, ARID1A / RFU, ZNF146 / Fold change vs veh, ZNF146 / RFU, ZNF330 / Fold change vs veh, ZNF330 / RFU, GPN3 / Fold change vs veh, GPN3 / RFU, C9orf123 / Fold change vs veh, C9orf123 / RFU, N4BP2L2 / Fold change vs veh, N4BP2L2 / RFU, ARFIP1 / Fold change vs veh, ARFIP1 / RFU, FAM179B / Fold change vs veh, FAM179B / RFU, BCL10 / Fold change vs veh, BCL10 / RFU, UHRF1BP1L / Fold change vs veh, UHRF1BP1L / RFU, BET1 / Fold change vs veh, BET1 / RFU, CNOT2 / Fold change vs veh, CNOT2 / RFU, ZNF268 / Fold change vs veh, ZNF268 / Fold change vs veh, ZNF507 / RFU, DGCR2 / Fold change vs veh, DGCR2 / RFU, WDSUB1 / Fold change vs veh, WDSUB1 / Fold change vs veh, HSP90B1 /// MIR3652 / RFU, ADSS / Fold change vs veh, ADSS / RFU, GK / Fold change vs veh, GK / RFU, ZNF148 / Fold change vs veh, ZNF148 / RFU, TAF9 / Fold change vs veh, TAF9 / RFU, SLC1A5 / Fold change vs veh, SLC1A5 / RFU, SLMO2 / Fold change vs veh, SLMO2 / RFU, ABCC4 / Fold change vs veh, ABCC4 / RFU, LOC101060439 /// RAP1B / Fold change vs veh, LOC101060439 /// RAP1B / RFU, RFX7 / Fold change vs veh, RFX7 / RFU, GTPBP10 / Fold change vs veh, GTPBP10 / RFU, CNEP1R1 / Fold change vs veh, CNEP1R1 / RFU, BIVM-ERCC5 /// ERCC5 / Fold change vs veh, BIVM-ERCC5 /// ERCC5 / RFU, ILF3 / Fold change vs veh, ILF3 / RFU 11762660_at / Fold change /veh 11762660_at / RFU VCAN (11757783_s_at) / Fold change /veh VCAN (11757783_s_at) / RFU DDX43 (11728927_at) / Fold change /veh DDX43 (11728927_at) / RFU KRT8 (11758188_x_at) / Fold change /veh KRT8 (11758188_x_at) / RFU NKD1 (11759106_at) / Fold change /veh NKD1 (11759106_at) / RFU SRD5A1 (11742802_a_at) / Fold change /veh SRD5A1 (11742802_a_at) / RFU TPSAB1 /// TPSB2 (11721975_s_at) / Fold change /veh TPSAB1 /// TPSB2 (11721975_s_at) / RFU GSTM3 (11746129_a_at) / Fold change /veh GSTM3 (11746129_a_at) / RFU IL23R (11737362_x_at) / Fold change /veh IL23R (11737362_x_at) / RFU TMEM51 (11727254_a_at) / Fold change /veh TMEM51 (11727254_a_at) / RFU PIWIL2 (11732686_x_at) / Fold change /veh PIWIL2 (11732686_x_at) / RFU ORM1 (11744905_x_at) / Fold change /veh ORM1 (11744905_x_at) / RFU CCDC152 (11743942_at) / Fold change /veh CCDC152 (11743942_at) / RFU ECM1 (11717891_a_at) / Fold change /veh ECM1 (11717891_a_at) / RFU IL23R (11748794_a_at) / Fold change /veh IL23R (11748794_a_at) / RFU TNFAIP8L3 (11732012_x_at) / Fold change /veh TNFAIP8L3 (11732012_x_at) / RFU MBOAT4 (11741988_at) / Fold change /veh MBOAT4 (11741988_at) / RFU 11764193_at / Fold change /veh 11764193_at / RFU TMEM53 (11763286_at) / Fold change /veh TMEM53 (11763286_at) / RFU MAGEB2 (11727129_at) / Fold change /veh MAGEB2 (11727129_at) / RFU TMEM200A (11744735_a_at) / Fold change /veh TMEM200A (11744735_a_at) / RFU CCDC152 (11751479_a_at) / Fold change /veh CCDC152 (11751479_a_at) / RFU FAM211A (11726209_a_at) / Fold change /veh FAM211A (11726209_a_at) / RFU RGS16 (11746705_a_at) / Fold change /veh RGS16 (11746705_a_at) / RFU VCAN (11755009_s_at) / Fold change /veh VCAN (11755009_s_at) / RFU RHOB (11743442_s_at) / Fold change /veh RHOB (11743442_s_at) / RFU RGS16 (11720943_a_at) / Fold change /veh RGS16 (11720943_a_at) / RFU RGS16 (11720944_at) / Fold change /veh RGS16 (11720944_at) / RFU, VPS4B / Fold change vs veh, VPS4B / RFU, CREB1 / Fold change vs veh, CREB1 / RFU, DNAJC13 / Fold change vs veh, DNAJC13 / RFU, GNAQ / Fold change vs veh, GNAQ / RFU, CDK5R1 / Fold change vs veh, CDK5R1 / RFU, ZRANB3 / Fold change vs veh, ZRANB3 / RFU, CUL4A / Fold change vs veh, CUL4A / RFU, CCNY / Fold change vs veh, CCNY / RFU, UFL1 / Fold change vs veh, UFL1 / RFU, COG3 / Fold change vs veh, COG3 / RFU, DIAPH2 / Fold change vs veh, DIAPH2 / RFU, SKA2 / Fold change vs veh, SKA2 / RFU, AFF3 / Fold change vs veh, AFF3 / RFU, LMF1 / Fold change vs veh, LMF1 / RFU, IPO11 / Fold change vs veh, IPO11 / RFU, DFFB / Fold change vs veh, DFFB / RFU, FOXP1 / Fold change vs veh, FOXP1 / RFU, CARD8 / Fold change vs veh, CARD8 / RFU, STRN3 / Fold change vs veh, STRN3 / RFU, ADK / Fold change vs veh, ADK / RFU, RASSF2 / Fold change vs veh, RASSF2 / RFU, WIPF1 / Fold change vs veh, WIPF1 / RFU, LARP1B / Fold change vs veh, LARP1B / RFU, RASA1 / Fold change vs veh, RASA1 / RFU, RB1 / Fold change vs veh, RB1 / RFU, PPFIA1 / Fold change vs veh, PPFIA1 / RFU, MAT2A / Fold change vs veh, MAT2A / RFU, CCT5 / Fold change vs veh, CCT5 / RFU, WDR92 / Fold change vs veh, WDR92 / RFU, CUX1 / Fold change vs veh, CUX1 / RFU, TTC7A / Fold change vs veh, TTC7A / RFU, TMEM135 / Fold change vs veh, TMEM135 / RFU, DEPTOR / Fold change vs veh, DEPTOR / RFU, CPM / Fold change vs veh, CPM / RFU, DNAJB6 / Fold change vs veh, DNAJB6 / RFU, CACNA2D3 / Fold change vs veh, CACNA2D3 / RFU, DTX4 / Fold change vs veh, DTX4 / RFU, TFCP2 / Fold change vs veh, TFCP2 / RFU, GMCL1 /// GMCL1P1 / Fold change vs veh, GMCL1 /// GMCL1P1 / RFU, AEBP2 / Fold change vs veh, AEBP2 / RFU, SNHG1 /// SNORD22 /// SNORD25 /// SNORD26 /// SNORD27 /// SNORD28 /// SNORD29 /// SNORD31 / Fold change vs veh, SNHG1 /// SNORD22 /// SNORD25 /// SNORD26 /// SNORD27 /// SNORD28 /// SNORD29 /// SNORD31 / Fold change (Aza/veh), C12orf56 (ProbeSet 11735607_a_at) / Fold change (ACY-1035/veh), C12orf56 (ProbeSet 11735607_a_at) / Fold change (Aza/veh), FGFR1OP (ProbeSet 11751329_s_at) / Fold change (ACY-1035/veh), FGFR1OP (ProbeSet 11751329_s_at) / Fold change (Aza/veh), VPS36 (ProbeSet 11739960_a_at) / Fold change (ACY-1035/veh), VPS36 (ProbeSet 11739960_a_at) / RFU SYPL1 (11715823_x_at) / Fold change /veh SYPL1 (11715823_x_at) / RFU IGFBP7 (11715501_s_at) / Fold change /veh IGFBP7 (11715501_s_at) / RFU REEP3 (11722064_at) / Fold change /veh REEP3 (11722064_at) / RFU IGLL1 (11728026_x_at) / Fold change /veh IGLL1 (11728026_x_at): dose or concentration left out as unconfirmed
Conditions: MV-4-11 cells, 48 hours

In the case of Nc1ncn([C@@H]2O[C@H](CO)[C@@H](O)[C@H]2O)c(=O)n1 [azacitidine], the “RFU C5orf56 (11738089_at)” value is reported as 11.14 RFU.
